Reference: publication PMC11502375, “Cytochrome P450 VvCYP76F14 dominates the production of wine bouquet precursors in wine grapes” (Frontiers in Plant Science, 2024)

Key:
[1] = target: VvCYP76F14 ('Yanniang No.2', Full-Bodied type) (Vitis vinifera, UniProt A0A1B2ZBX8, L351V, form not given); settings: 1 mM NADPH; ATR1 reductase (VvCYP76F14:ATR1 2:1); 100 mM Na+/K+ phosphate pH 5.0; 25 °C; 1 h
[2] = target: VvCYP76F14 ('Yanniang No.2', Full-Bodied type) (Vitis vinifera, UniProt A0A1B2ZBX8, E431G, form not given); settings: 1 mM NADPH; ATR1 reductase (VvCYP76F14:ATR1 2:1); 100 mM Na+/K+ phosphate pH 5.0; 25 °C; 1 h
VvCYP76F14 ('Yanniang No.2', Full-Bodied type) (Vitis vinifera, UniProt A0A1B2ZBX8, E431G, form not given), sequence (A0A1B2ZBX8 entry or part of it E431G, form open): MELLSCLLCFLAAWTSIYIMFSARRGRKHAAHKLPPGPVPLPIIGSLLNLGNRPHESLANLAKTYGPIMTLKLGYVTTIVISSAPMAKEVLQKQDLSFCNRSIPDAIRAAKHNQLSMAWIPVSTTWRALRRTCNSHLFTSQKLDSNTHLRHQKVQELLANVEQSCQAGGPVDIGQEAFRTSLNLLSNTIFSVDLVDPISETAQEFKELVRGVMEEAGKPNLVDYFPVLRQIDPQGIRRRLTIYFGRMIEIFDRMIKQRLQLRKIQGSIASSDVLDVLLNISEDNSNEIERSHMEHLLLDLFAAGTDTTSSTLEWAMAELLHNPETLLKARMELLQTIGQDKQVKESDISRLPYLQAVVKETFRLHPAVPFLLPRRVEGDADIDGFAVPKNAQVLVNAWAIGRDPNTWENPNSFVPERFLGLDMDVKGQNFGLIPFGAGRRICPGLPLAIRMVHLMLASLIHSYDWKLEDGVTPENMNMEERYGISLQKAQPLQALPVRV

[3] = target: VvCYP76F14 ('Yanniang No.2', Full-Bodied type) (Vitis vinifera, UniProt A0A1B2ZBX8, I173L, form not given); settings: 1 mM NADPH; ATR1 reductase (VvCYP76F14:ATR1 2:1); 100 mM Na+/K+ phosphate pH 5.0; 25 °C; 1 h
VvCYP76F14 ('Yanniang No.2', Full-Bodied type) (Vitis vinifera, UniProt A0A1B2ZBX8, I173L, form not given), sequence (A0A1B2ZBX8 entry or part of it I173L, form open): as the sequence (A0A1B2ZBX8 entry or part of it E431G, form open) above, with I173L, G431E counted along it

[4] = target: VvCYP76F14 ('Yanniang No.2', Full-Bodied type) (Vitis vinifera, UniProt A0A1B2ZBX8); settings: 1 mM NADPH; ATR1 reductase (VvCYP76F14:ATR1 2:1); 100 mM Na+/K+ phosphate pH 5.0; 25 °C; 1 h
VvCYP76F14 ('Yanniang No.2', Full-Bodied type) (Vitis vinifera, UniProt A0A1B2ZBX8), sequence (A0A1B2ZBX8 entry or part of it): as the sequence (A0A1B2ZBX8 entry or part of it E431G, form open) above, with G431E counted along it

[5] = target: T1, VvCYP76F14 ('Marselan', Aromatic type) (Vitis vinifera, UniProt A0A1B2ZBX8); assay: substrate depletion by HPLC-HRMS; assay type: biochemical; settings: 1 mM NADPH; ATR1 reductase; pH 5.0; 25 °C; 1 h
T1 construct: 499 residues; natural allele, versus Yanniang No.2: N46S/N111K/R175Q/L222V/M264I/S286N/L298V/K325T/E378G/T380A/E383D/T386A; MBP fusion in E. coli, MBP cut off with TEV protease; reductase partner Arabidopsis ATR1
T1 sequence (A0A1B2ZBX8 entry or part of it): as the sequence (A0A1B2ZBX8 entry or part of it E431G, form open) above, with G431E counted along it

VvCYP76F14 ('Yanniang No.2', Full-Bodied type) (Vitis vinifera, UniProt A0A1B2ZBX8, L351V, form not given), sequence (A0A1B2ZBX8 entry or part of it L351V, form open): as the sequence (A0A1B2ZBX8 entry or part of it E431G, form open) above, with L351V, G431E counted along it

Row | SMILES | Km [1] | Km [2] | Km [3] | Km [4] | specific activity [5]
1 | C=CC(C)(O)CC/C=C(\C)C=O (centres unmarked) [(E)-8-oxolinalool] | 41.9 ± 5.24 µM | 88.5 ± 9.85 µM | 90.8 ± 12.2 µM | 41.4 ± 3.93 µM | 
2 | C=CC(C)(O)CC/C=C(\C)CO (centres unmarked) [(E)-8-hydroxylinalool] | 30.6 ± 2.85 µM | 65 ± 6.98 µM | 76.7 ± 7.22 µM | 29.1 ± 2.66 µM | (E)-8-hydroxylinalool (dehydrogenation), and (E)-8-oxolinalool (carboxylation) as substrates
3 | C=CC(C)(O)CCC=C(C)C (centres unmarked) [linalool] | 67.6 ± 6.94 µM | 144 ± 15.6 µM | 151 ± 14.6 µM | 66.2 ± 5.63 µM | All three VvCYP76F14s demonstrated catalytic activity in reactions utilizing linalool (hydroxylation)
